pIC50, pKd: −log10 of the molar value. Activity calls are given as the source filed them. The rule behind the calls is not given here.
Assays:
[1] = target: T1, Heat shock protein HSP 90-beta (Homo sapiens, UniProt P08238); assay: Binding affinity to human Hsp90 by surface plasmon resonance analysis; conditions: for pKd: read-out: Kd
[2] = target: T1, Heat shock protein HSP 90-beta; assay: Inhibition of human Hsp90 chaperone activity assessed as citrate synthase thermal-induced aggregation at 0.3 uM by fluorimetric analysis
[3] = target: T1, Heat shock protein HSP 90-beta; assay: Inhibition of human Hsp90 ATPase activity assessed as inhibition of ATP hydrolysis after 60 mins by fluorimetric analysis

T1 sequence (P08238 whole entry): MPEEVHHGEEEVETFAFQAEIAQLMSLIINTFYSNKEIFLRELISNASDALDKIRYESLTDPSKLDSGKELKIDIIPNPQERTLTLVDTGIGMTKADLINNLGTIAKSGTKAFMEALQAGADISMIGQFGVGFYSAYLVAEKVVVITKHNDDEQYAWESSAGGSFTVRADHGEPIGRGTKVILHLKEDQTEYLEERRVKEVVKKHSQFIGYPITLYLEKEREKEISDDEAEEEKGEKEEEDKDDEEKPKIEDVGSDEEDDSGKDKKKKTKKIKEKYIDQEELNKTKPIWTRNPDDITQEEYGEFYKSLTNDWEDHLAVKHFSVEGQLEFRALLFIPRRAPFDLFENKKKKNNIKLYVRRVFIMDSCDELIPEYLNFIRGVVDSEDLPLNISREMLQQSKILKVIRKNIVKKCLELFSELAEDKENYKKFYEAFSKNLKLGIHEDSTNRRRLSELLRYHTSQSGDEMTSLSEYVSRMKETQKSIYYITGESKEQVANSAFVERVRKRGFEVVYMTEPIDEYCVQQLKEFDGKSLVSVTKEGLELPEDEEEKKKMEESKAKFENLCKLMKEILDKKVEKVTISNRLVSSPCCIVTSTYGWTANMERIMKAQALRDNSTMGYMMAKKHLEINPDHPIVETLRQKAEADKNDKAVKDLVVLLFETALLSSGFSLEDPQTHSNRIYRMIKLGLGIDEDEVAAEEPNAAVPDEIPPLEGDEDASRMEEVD

pKd [1] | Kd [1] | other results | Compound
6.97 | – | – | O=C1c2ccccc2C(=O)c2cc(Cn3cc(CN(Cc4cn(Cc5ccc6c(c5)C(=O)c5ccccc5C6=O)nn4)Cc4cn(Cc5ccc6c(c5)C(=O)c5ccccc5C6=O)nn4)nn3)ccc21
6.82 | – | – | O=C(c1ccccc1)c1ccc(Cn2cc(CN(Cc3cn(Cc4ccc(C(=O)c5ccccc5)cc4)nn3)Cc3cn(Cc4ccc(C(=O)c5ccccc5)cc4)nn3)nn2)cc1
7.14 | – | – | c1ccc(-c2ccc(Cn3cc(CN(Cc4cn(Cc5ccc(-c6ccccc6)cc5)nn4)Cc4cn(Cc5ccc(-c6ccccc6)cc5)nn4)nn3)cc2)cc1
– | Not Active | – | c1ccc2cc(Cn3cc(-c4ccc(-c5cn(Cc6ccc7ccccc7c6)nn5)cc4)nn3)ccc2c1
7.05 | – | – | O=C1c2ccccc2C(=O)N1CCCn1cc(CN(Cc2cn(CCCN3C(=O)c4ccccc4C3=O)nn2)Cc2cn(CCCN3C(=O)c4ccccc4C3=O)nn2)nn1
– | Not Active | – | O=C1c2ccccc2C(=O)N1CCCn1cc(CCCCc2cn(CCCN3C(=O)c4ccccc4C3=O)nn2)nn1
8.55 | – | inhibition [2]: Active; pIC50 [3]: 5.15; inhibition [3]: Dose-dependent effect | O=C1c2ccccc2C(=O)c2cc(Cn3cc(COCc4cn(Cc5ccc6c(c5)C(=O)c5ccccc5C6=O)nn4)nn3)ccc21
7.99 | – | – | c1ccc2c(Cn3cc(COCc4cn(Cc5cccc6ccccc56)nn4)nn3)cccc2c1
– | Not Active | – | O=C1c2ccccc2C(=O)c2cc(Cn3cc(CCCCc4cn(Cc5ccc6c(c5)C(=O)c5ccccc5C6=O)nn4)nn3)ccc21
6.70 | – | – | c1ccc2c(Cn3cc(CN(Cc4cn(Cc5cccc6ccccc56)nn4)Cc4cn(Cc5cccc6ccccc56)nn4)nn3)cccc2c1
6.63 | – | – | c1ccc(-c2ccc(Cn3cc(COCc4cn(Cc5ccc(-c6ccccc6)cc5)nn4)nn3)cc2)cc1
– | Not Active | – | c1ccc(-c2ccc(Cn3cc(CCCCc4cn(Cc5ccc(-c6ccccc6)cc5)nn4)nn3)cc2)cc1
– | Not Active | – | c1ccc2c(Cn3cc(-c4ccc(-c5cn(Cc6cccc7ccccc67)nn5)cc4)nn3)cccc2c1
– | Not Active | – | c1ccc(-c2ccc(Cn3cc(-c4ccc(-c5cn(Cc6ccc(-c7ccccc7)cc6)nn5)cc4)nn3)cc2)cc1
8.46 | – | inhibition [2]: Active; pIC50 [3]: 5.15; inhibition [3]: Dose-dependent effect | O=C1c2ccccc2C(=O)N1CCCn1cc(COCc2cn(CCCN3C(=O)c4ccccc4C3=O)nn2)nn1
– | Not Active | – | O=C(c1ccccc1)c1ccc(Cn2cc(-c3ccc(-c4cn(Cc5ccc(C(=O)c6ccccc6)cc5)nn4)cc3)nn2)cc1
7.08 | – | inhibition [2]: Active; pIC50 [3]: 4.28; inhibition [3]: Dose-dependent effect | c1ccc2cc(Cn3cc(CCCCc4cn(Cc5ccc6ccccc6c5)nn4)nn3)ccc2c1
– | Not Active | – | c1ccc2cc(Cn3cc(COCc4cn(Cc5ccc6ccccc6c5)nn4)nn3)ccc2c1
8.44 | – | inhibition [2]: Active; pIC50 [3]: 5.15; inhibition [3]: Dose-dependent effect | O=C(c1ccccc1)c1ccc(Cn2cc(COCc3cn(Cc4ccc(C(=O)c5ccccc5)cc4)nn3)nn2)cc1
7.26 | – | inhibition [2]: Active; pIC50 [3]: 4.80; inhibition [3]: Dose-dependent effect | c1ccc2cc(Cn3cc(CN(Cc4cn(Cc5ccc6ccccc6c5)nn4)Cc4cn(Cc5ccc6ccccc6c5)nn4)nn3)ccc2c1
– | Not Active | – | O=C(c1ccccc1)c1ccc(Cn2cc(CCCCc3cn(Cc4ccc(C(=O)c5ccccc5)cc4)nn3)nn2)cc1
– | Not Active | – | O=C1c2ccccc2C(=O)N1CCCn1cc(-c2ccc(-c3cn(CCCN4C(=O)c5ccccc5C4=O)nn3)cc2)nn1
6.72 | – | – | c1ccc2c(Cn3cc(CCCCc4cn(Cc5cccc6ccccc56)nn4)nn3)cccc2c1
– | Not Active | – | O=C1c2ccccc2C(=O)c2cc(Cn3cc(-c4ccc(-c5cn(Cc6ccc7c(c6)C(=O)c6ccccc6C7=O)nn5)cc4)nn3)ccc21

From ChEMBL document CHEMBL2412974, “Dimeric and trimeric triazole based molecules as a new class of Hsp90 molecular chaperone inhibitors” (Eur J Med Chem, 2013)
